Source: publication PMC10328743, “5-Nitro-3-(2-(4-phenylthiazol-2-yl)hydrazineylidene)indolin-2-one derivatives inhibit HIV-1 replication by a multitarget mechanism of action” (Frontiers in Cellular and Infection Microbiology, 2023)

Tests used:
[1] = molecular target: T1, HIV-1 IN (LEDGF/p75-dependent) (Human immunodeficiency virus type 1 group M subtype B, UniProt P12497); experiment: biochemical; type: biochemical; conditions: strand-transfer activity in the presence of LEDGF/p75; for IC50: read-out: IC50 IN LEDGF-dependent integration
T1 construct: Preparation of recombinant full-length IN and LEDGF proteins; made in house; host or cells: E. coli BL21(DE3)
Protocol: Proteins were expressed in E. coli BL21(DE3). Briefly, His-IN was purified by loading the precipitate of cell lysate onto a Ni-Sepharose column and eluting with a […] imidazole gradient (0–500 mM) in a HEPES buffer (50 mM, pH 7.5) containing NaCl (1 M), CHAPS (7.5 mM), and β-mercaptoethanol (2 mM). FLAG-IN was purified by loading the precipitate of cell lysate onto a phenyl-sepharose and ammonium sulfate gradient (0–800 mM) in a HEPES (pH 7.5, 50 mM) buffer containing NaCl (200 mM), CHAPS (7.5 mM), and β-mercaptoethanol (2 mM). Peak fractions were pooled, loaded onto a heparin column, and eluted with an increasing NaCl gradient (200 mM to 1 M) in a HEPES (pH 7.5, 50 mM) buffer containing CHAPS (7.5 mm) and β-mercaptoethanol (2 mM). Fractions containing integrase were pooled and stored in glycerol (10%) at −80°C.
Briefly, IN (50 nM) was preincubated with increasing concentrations of compounds for 1 h at room temperature in a reaction buffer containing HEPES (20 mM, pH 7.5), DTT (1 mM), glycerol (1%), MgCl2 (20 mM), Brij-35 (0.05%), and bovine serum albumin (BSA) (0.1 mg/ml).

[2] = tested on: HIV-1; experiment: Quantification of viral DNA genomes by qPCR in infected MT4 cells; type: cell-based; conditions: single HIV-1 replication cycle; for total viral DNA: increasing concentrations
Protocol: Quantitative PCR (qPCR) was performed as described previously ([Munir et al., 2013]). […] Cells were washed in phosphate-buffered saline (PBS), and dry cell pellets were frozen at −80°C until use. DNA from samples was purified with QIAamp DNA Blood mini kit (Qiagen, Valencia, CA, USA) according to the manufacturer’s instructions. Quantification of total viral DNAs, 2-LTR circular viral DNA (2-LTRc), and integrated DNAs was performed on a LightCycler instrument (Roche Diagnostics, Basel, Switzerland) using the second-derivative-maximum method provided by the LightCycler quantification software, version 3.5 (Roche Diagnostics). Amplification of the β-globin gene (two copies per diploid cell) was performed to normalize the results using the commercially available materials (Control kit DNA; Roche Diagnostics). The quantification of the results for 2-LTRc and total HIV-1 DNA was expressed as copy numbers per µg DNA. Integrated HIV-1 DNA was expressed as a percentage of wt control. Data were represented by mean and standard deviation of two independent experiments; p-values were calculated between the infected and infected-treated conditions by unpaired, two-tailed t-tests using GraphPad Prism Version 9.5.1 software (GraphPad Software, Inc., San Diego, CA, USA). Figures were drawn with GraphPad Prism Version 9.5.1.

[3] = molecular target: T2, HIV-1 RT-associated RDDP (Human immunodeficiency virus type 1 group M subtype B, UniProt P04585); experiment: HIV-1 RNA-dependent DNA polymerase activity determination; type: biochemical; conditions: wt HIV-1 RT; three independent experiments, average ± standard deviation; read-out: RDDP IC50
T2 construct: The 1:1 ratio between the p66/p51 subunits was also verified; His tag (implied only by Ni-NTA IMAC purification); made in house; host or cells: Escherichia coli M15
Protocol: Escherichia coli strain M15 containing the p6HRT-prot vector (provided by Stuart Le Grice laboratory (NCI Frederick)) was grown to an optical density at 600 nm of 0.7 and induced with 1.7 mM of isopropyl β-D-1-thiogalactopyranoside (IPTG) for 4 h. Protein purification was carried out with a BioLogic LP system (Bio-Rad, Hercules, CA, USA) using a combination of immobilized metal affinity chromatography (IMAC) and ion exchange chromatography. Cell pellets were resuspended in lysis buffer (50 mM of sodium phosphate buffer, pH 7.8, containing 0.5 mg/mL of lysozyme), incubated on ice for 20 min, and, after the addition of NaCl to a final concentration of 0.3 M, were sonicated and centrifuged at 30,000 ×g for 1 h. The supernatant was loaded onto a Ni^2+-NTA-Sepharose column pre-equilibrated with loading buffer (50 mM of sodium phosphate buffer, pH 7.8, containing 0.3 M of NaCl, 10% glycerol, and 10 mM of imidazole) and washed thoroughly with wash buffer (50 mM of sodium phosphate buffer, pH 6.0, containing 0.3 M of NaCl, 10% glycerol, and 80 mM of imidazole). RT was eluted with an imidazole gradient in the wash buffer (0–0.5 M). Fractions were collected, and protein purity was checked by sodium dodecyl sulfate–polyacrylamide gel electrophoresis (SDS-PAGE) and found to be higher than 90%. The 1:1 ratio between the p66/p51 subunits was also verified. Enzyme-containing fractions were pooled and diluted 1:1 with 50 mM of sodium phosphate buffer, pH 7.0, containing 10% glycerol, and then loaded into a Hi-trap heparin HP GE (Healthcare LifeScience) pre-equilibrated with 10 column volumes of loading buffer (50 mM of sodium phosphate buffer, pH 7.0, containing 10% glycerol, and 150 mM of NaCl). The column was then washed with loading buffer, and the RT was eluted with Elute Buffer 2 (50 mM of sodium phosphate, pH 7.0, 10% glycerol, 1 M of NaCl). Fractions were collected, and the protein was dialyzed and stored in a buffer containing 50 mM of Tris-HCl, pH 7.0, 25 mM of NaCl, 1 mM of EDTA, and 50% glycerol. Catalytic activities and protein concentrations were determined. Enzyme-containing fractions were pooled, and aliquots were stored at −80°C.
RDDP activity was measured as previously reported in 25-µl volume containing 60 mM of Tris‐HCl buffer, pH 8.1, 8 mM of MgCl2, 60 mM of KCl, 13 mM of DTT, 2.5 µM of poly(A)-oligo(dT), 100 µM of dTTP, increasing concentrations of inhibitors, whose dilution were made in water, and different amounts of enzymes according to a linear range of the dose–response curve. The reaction mixture was incubated for 30 min at 37°C and then stopped by the addition of EDTA. Reaction products were detected by pico green addition and measured with a multilabel counter plate reader Victor 3, equipped with filters for 502/523 nm.

Cc1ccc(-c2csc(N/N=C3\C(=O)Nc4ccc([N+](=O)[O-])cc43)n2)cc1 [10a]
IC50 [1]: 32.3 ± 2.7 µM | DNA 2LTRc levels [2]: marked increase | integrated viral DNA ([2]; 48 h): significantly more marked effect than 9b | total viral DNA [2]: decrease in total viral DNA | IC50 [3]: 18 ± 1.5 µM

O=C1Nc2ccc(Cl)cc2/C1=N/Nc1nc(-c2ccc(Cl)c(Cl)c2)cs1 [9b]
IC50 IN LEDGF-dependent integration [1]: not able to inhibit IN | IC50 [1]: > 100 µM | DNA 2LTRc levels [2]: no increase | total viral DNA [2]: decrease in total viral DNA | IC50 [3]: 24 ± 3 µM
